Read-outs that look alike come from different tables or passages of the source.
Experiments:
DGKζ = DGKζ (Homo sapiens (Human), UniProt Q13574); test: Assay 1 or 2: In Vitro DGK Inhibition Assays (DGKζ LIPGLO, extruded liposome); type: biochemical; conditions: extruded liposome substrate, 150 μM ATP
Human whole blood pERK = test: Assay 11: DGK Human Whole Blood pERK Assay; type: cell-based; conditions: anti-CD3 stimulation, pERK positive within CD8 positive population, starting concentration 20 μM, read-out: DGK HWB pERK IC50
Protocol: Assay 11: DGK Human Whole Blood pERK Assay
Human whole blood ERK phosphorylation assay was performed with human venous whole blood obtained from healthy donors (drawn with Heparin as anti-coagulant). Serial dilutions of compounds (11 points, 3-fold) in DMSO were added to 384 well plates at 20 nL/well using an ECHO 550 acoustic dispenser (Labcyte) to achieve final starting concentration of 20 μM in assay. Heparinized human whole blood was added to the compound plate at 9 μL per well and incubated for one hour at 37° C. in a humidified 95%, air/5% CO2 incubator. After one hour of compound incubation, 1 μL of human anti-CD3 antibody (in-house) in the presence of cross-linking antibody goat anti-mouse IgG (4 μg/mL) was added to the well at 1 μg/mL final concentration for stimulation of pathway and additionally incubated for 15 minutes at 37° C. Stimulation was stopped by adding 90 μL Fix/Lyse buffer (BD 558049). Cells were washed and stained with anti-CD8 PE (BD 555635) antibodies for 60 minutes at room temperature, washed again, and permeabilized on ice using Perm III buffer (BD 558050) for 30 minutes. Cells were then stained with an Alexa Fluor® 647 anti-ERK1/2 Phospho (Thr202/Tyr204) Antibody (Bioleged 675504) for 60 minutes at 1:50 dilution. Samples were washed and resuspended in dPBS containing 1% BSA (dPBS, Gibco 14190136; BSA, Sigma-Aldrich A9205). Samples analyzed using the Intellicyt® iQue Screener PLUS. The pERK activation was quantitated by the percentage of pERK positive population within CD8 positive population.

Chain of DGKζ (Q13574 other isoform, or with tags, fused parts or gaps): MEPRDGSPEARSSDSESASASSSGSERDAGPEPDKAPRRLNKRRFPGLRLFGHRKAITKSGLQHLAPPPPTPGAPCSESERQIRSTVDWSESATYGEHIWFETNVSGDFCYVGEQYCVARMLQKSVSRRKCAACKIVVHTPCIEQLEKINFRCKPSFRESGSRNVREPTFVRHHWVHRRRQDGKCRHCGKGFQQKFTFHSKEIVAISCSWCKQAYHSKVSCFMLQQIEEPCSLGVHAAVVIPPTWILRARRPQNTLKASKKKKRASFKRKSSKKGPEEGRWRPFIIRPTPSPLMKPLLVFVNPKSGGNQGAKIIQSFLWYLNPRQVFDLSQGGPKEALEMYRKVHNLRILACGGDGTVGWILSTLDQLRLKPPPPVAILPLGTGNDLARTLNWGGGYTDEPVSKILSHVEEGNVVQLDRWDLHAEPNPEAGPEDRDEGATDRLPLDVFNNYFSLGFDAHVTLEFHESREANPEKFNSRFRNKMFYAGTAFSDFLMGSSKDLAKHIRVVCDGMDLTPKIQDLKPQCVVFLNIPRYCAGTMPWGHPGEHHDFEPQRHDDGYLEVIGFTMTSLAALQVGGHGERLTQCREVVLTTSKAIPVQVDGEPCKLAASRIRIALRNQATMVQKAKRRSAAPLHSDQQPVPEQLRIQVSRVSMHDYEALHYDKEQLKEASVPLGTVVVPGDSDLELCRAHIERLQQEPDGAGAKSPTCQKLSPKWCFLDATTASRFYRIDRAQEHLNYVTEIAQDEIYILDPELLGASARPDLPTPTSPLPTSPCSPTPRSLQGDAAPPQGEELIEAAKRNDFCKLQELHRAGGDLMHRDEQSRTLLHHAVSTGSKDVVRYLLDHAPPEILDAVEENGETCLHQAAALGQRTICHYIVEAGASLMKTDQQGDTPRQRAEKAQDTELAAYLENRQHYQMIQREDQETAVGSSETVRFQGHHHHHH

IC50 (DGKζ)	IC50 (Human whole blood pERK; Homo sapiens, CD8 positive)	IC50 (Human whole blood pERK)	Compound
3290 nM	5530 nM	–	CC[C@H]1CN(C(C(=O)N2CCOCC2)c2ccc(C(F)(F)F)cc2)[C@H](CC)CN1c1nc(=O)n(C)c2ccc(C#N)nc12 (single isomer, unassigned) [Example 53]
580 nM	–	3510 nM	CC[C@H]1CN(C(C(=O)N2CCOCC2)c2ccc(C(F)(F)F)cc2)[C@H](CC)CN1c1nc(=O)n(C)c2ccc(C#N)nc12 (single isomer, unassigned) [Example 54]
100 nM	300 nM	–	CC[C@H]1CN(C(C(=O)NCCOC)c2ccc(C(F)(F)F)cc2)[C@H](CC)CN1c1nc(=O)n(C)c2ccc(C#N)nc12 (single isomer, unassigned) [Example 56]

Source: US12454531B2, “Substituted piperazine derivatives useful as T cell activators” (BRISTOL-MYERS SQUIBB COMPANY, priority 2019, dated 2025)
